Results reported in PubChem BioAssay (NCI).
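Here, GI50 denotes the concentration required for 50% inhibition of growth. The concentration for full growth arrest is given as TGI.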

Tests used:
Test in all cases: inhibition of tumour cell growth, NCI panel, 384-well format
[1] = tested on: MDA-MB-468 breast
[2] = tested on: EKVX NSCLC
[3] = tested on: HCT-116 colon
[4] = tested on: SK-MEL-5 melanoma
[5] = tested on: HOP-92 NSCLC
[6] = tested on: SN12C renal
[7] = tested on: TK-10 renal
[8] = tested on: U251 glioblastoma
[9] = tested on: MOLT-4 leukemia
[10] = tested on: ACHN renal
[11] = tested on: RPMI-8226 leukemia
[12] = tested on: NCI-H23 lung
[13] = tested on: MDA-MB-231 breast
[14] = tested on: BT-549 breast
[15] = tested on: SNB-19 CNS
[16] = tested on: NCI-H522 lung
[17] = tested on: OVCAR-3 ovarian
[18] = tested on: OVCAR-4 ovarian
[19] = tested on: SW-620 colon
[20] = tested on: KM12 colon
[21] = tested on: SK-MEL-28 melanoma
[22] = tested on: A549 NSCLC
[23] = tested on: PC-3 prostate
[24] = tested on: UO-31 renal
[25] = tested on: SR leukemia
[26] = tested on: SF-295 CNS
[27] = tested on: SNB-75 CNS
[28] = tested on: MALME-3M melanoma
[29] = tested on: HCT-15 colon
[30] = tested on: NCI/ADR-RES ovarian
[31] = tested on: DU-145 prostate
[32] = tested on: LOX IMVI melanoma
[33] = tested on: MCF7 breast
[34] = tested on: IGROV1 ovarian
[35] = tested on: RXF 393 renal
[36] = tested on: SF-539 CNS
[37] = tested on: A498 renal
[38] = tested on: UACC-257 melanoma
[39] = tested on: SF-268 CNS
[40] = tested on: T-47D breast
[41] = tested on: SK-OV-3 ovarian
[42] = tested on: HL-60(TB) leukemia
[43] = tested on: NCI-H226 lung
[44] = tested on: HOP-62 NSCLC
[45] = tested on: COLO 205 colon
[46] = tested on: OVCAR-5 ovarian
[47] = tested on: 786-0 renal
[48] = tested on: NCI-H460 NSCLC
[49] = tested on: UACC-62 melanoma
[50] = tested on: MDA-MB-435 melanoma
[51] = tested on: M14 melanoma
[52] = tested on: OVCAR-8 ovarian
[53] = tested on: CAKI-1 renal
[54] = tested on: HS 578T breast

C=CC(=O)N1CCCC(n2nc(-c3ccc(Oc4ccccc4)cc3)c3c(N)ncnc32)C1 (stereo not drawn) gave a GI50 [1] of 0.0226 µM, a TGI [1] of 0.239 µM and a GI50 [2] of 0.316 µM. For the same molecule, the TGI [2] was 16.7 µM, the GI50 [3] was 15.3 µM and the TGI [3] was 28.8 µM. It also gave a GI50 [4] of 10.9 µM, a TGI [4] of 23 µM and a GI50 [5] of 13.6 µM. It also gave a TGI [5] of 26.5 µM, a GI50 [6] of 2.71 µM and a TGI [6] of 16.5 µM. The GI50 [7] was 0.479 µM, the TGI [7] was 12.1 µM and the GI50 [8] was 14 µM. For the same molecule, the TGI [8] was 27.1 µM, the GI50 [9] was 1.32 µM and the TGI [9] was 5.02 µM. The GI50 [10] was 0.655 µM, the TGI [10] was 17.3 µM and the GI50 [11] was 10.5 µM. The TGI [11] was 22.4 µM, the GI50 [12] was 16.3 µM and the TGI [12] was 29.9 µM. For the same molecule, the GI50 [13] was 16.2 µM, the TGI [13] was 29.8 µM and the GI50 [14] was 3.59 µM. For the same molecule, the TGI [14] was 13.3 µM, the GI50 [15] was 15 µM and the TGI [15] was 28.4 µM. The GI50 [16] was 0.0178 µM, the TGI [16] was 0.0859 µM and the GI50 [17] was 2.05 µM. It also gave a TGI [17] of 15.5 µM, a GI50 [18] of 11.2 µM and a TGI [18] of 23.3 µM. It also gave a GI50 [19] of 18.4 µM, a TGI [19] of 32.5 µM and a GI50 [20] of 14.5 µM. It also gave a TGI [20] of 27.7 µM, a GI50 [21] of 17.3 µM and a TGI [21] of 31.2 µM. It also gave a GI50 [22] of 12.1 µM, a TGI [22] of 24.5 µM and a GI50 [23] of 14.8 µM. It also gave a TGI [23] of 28.1 µM, a GI50 [24] of 6.11 µM and a TGI [24] of 19.9 µM. It also gave a GI50 [25] of 5.35 µM, a TGI [25] of 18.4 µM and a GI50 [26] of 14.7 µM. It also gave a TGI [26] of 27.9 µM, a GI50 [27] of 5.51 µM and a TGI [27] of 14 µM. It also gave a GI50 [28] of 13.5 µM, a TGI [28] of 26.4 µM and a GI50 [29] of 12.6 µM. It also gave a TGI [29] of 25.3 µM, a GI50 [30] of 11.3 µM and a TGI [30] of 23.5 µM. For the same molecule, the GI50 [31] was 4.16 µM, the TGI [31] was 19.2 µM and the GI50 [32] was 4.43 µM. It also gave a TGI [32] of 19.3 µM, a GI50 [33] of 10.3 µM and a TGI [33] of 22.1 µM. The GI50 [34] was 0.114 µM, the TGI [34] was 5.9 µM and the GI50 [35] was 1.18 µM. For the same molecule, the TGI [35] was 6.31 µM, the GI50 [36] was 11.3 µM and the TGI [36] was 23.4 µM. The GI50 [37] was 11.5 µM, the TGI [37] was 23.7 µM and the GI50 [38] was 10.6 µM. For the same molecule, the TGI [38] was 22.5 µM, the GI50 [39] was 6.51 µM and the TGI [39] was 20 µM. It also gave a GI50 [40] of 0.0148 µM, a TGI [40] of 17.7 µM and a GI50 [41] of 2.87 µM. The TGI [41] was 20.5 µM, the GI50 [42] was 15.9 µM and the TGI [42] was 29.4 µM. The GI50 [43] was 6.21 µM, the TGI [43] was 19.3 µM and the GI50 [44] was 15.2 µM. For the same molecule, the TGI [44] was 28.6 µM, the GI50 [45] was 18.9 µM and the TGI [45] was 33 µM. It also gave a GI50 [46] of 18.7 µM, a TGI [46] of 32.8 µM and a GI50 [47] of 3.78 µM. It also gave a TGI [47] of 17.4 µM, a GI50 [48] of 16.5 µM and a TGI [48] of 30.1 µM. For the same molecule, the GI50 [49] was 5.71 µM, the TGI [49] was 18.7 µM and the GI50 [50] was 17.2 µM. For the same molecule, the TGI [50] was 31.1 µM, the GI50 [51] was 11.1 µM and the TGI [51] was 23.2 µM. For the same molecule, the GI50 [52] was 12.1 µM, the TGI [52] was 24.6 µM and the GI50 [53] was 6.76 µM. It also gave a TGI [53] of 19.6 µM, a GI50 [54] of 6.88 µM and a TGI [54] of 19.5 µM.
